What was measured:
[1] = system: Salmonella typhimurium TA98 and TA100; test: Mini Ames assay (TA98 and TA100); format: cell-based; conditions: for increase in the mean number of revertants: TA98 and TA100, with or without metabolic activation (S9)
Source text: The Ames test in micro-method (in 6-well plates=mini Ames) follows the general principles of the standard Ames's technique. The Ames test used strains of bacteria Salmonella typhimurium that carry mutations in the genes involved in histidine synthesis. These strains are auxotrophic mutants, they require histidine for growth but cannot produce it. The assay was used to observe the ability of the test item to induce reverse mutations allowing the bacteria to grow in a histidine-free medium. The number of bacteria that revert and acquire the wild-type ability to grow in the absence of histidine can be estimated by counting the colonies that develop upon incubation. The use of different strains allows the identification of different mechanisms of gene mutation (TA98 for detection of frameshift mutations and TA100 for detection of base pair substitutions).
In a number of cases, the test item itself is not directly mutagenic but its metabolic derivatives are.
A toxicity assessment was performed on complete nutriment agar plate (with histidine) to define the highest concentration to be used in the genotoxicity assay. Solutions were prepared in 100% DMSO. The first concentration analyzed in the well (6-well plate) was 500 μg per plate followed by 7 serial dilutions (2 times factor of dilution). […] The viability of the positive and negative controls was analyzed for each strain, in the presence or absence of metabolic activation system, and were compared with historical data to validate the study. […]
Test items, positive and negative controls were incubated with the 2 bacterial strains. After 48 h incubation at 37° C. with and without metabolic activation (S9), the prototrophic mutant colonies that had grown on the plates were counted. The results were expressed as the mean number of revertants for each condition tested (3 replicates each) and for each concentration of the test item and controls. Induction ration, corresponding to the ratio of revertants in presence of test item versus spontaneous revertant, was determined for each concentration.

[2] = system: different pharmacological targets; test: CEREP Safety Screen-44 in vitro pharmacology binding and enzyme/uptake assays; conditions: tested at 10 μM; FIGS. 2-5
Method: An in vitro pharmacology assay was conducted to assess the capability of the compounds to interact with different pharmacological targets when tested at 10 μM in different binding and enzyme/uptake assays. The included targets are indicative of potential effects in major organs and drug-drug interactions.
Compound binding was calculated as a % inhibition of the binding of a radioactively labelled ligand specific for each target. Compounds were tested at 1.0E-05 M. Compound enzyme inhibition effect was calculated as a % inhibition of control enzyme activity. Results showing an inhibition or stimulation higher than 50% are considered to represent significant effects of the test compounds.

Structure (SMILES) | mutagenicity ([1]; TA98 & TA100, with and without metabolic system) | increase in the mean number of revertants [1] | pharmacological effects in safety screen compared with Ruxolitinib [2]
C=CCCN(C)S(=O)(=O)C[C@H]1C[C@@H](Nc2c(C#N)cnc3[nH]ccc23)C1 [Compound C, N-(But-3-en-1-yl)-1-((cis)-3-((5-cyano-1H-pyrrolo[2,3-b]pyridin-4-yl)amino)cyclobutyl)-N-methylmethanesulfonamide] | not considered to be mutagenic | did not induce a biologically significant increase | significantly improved pharmacological effects over Ruxolitinib
CN(CC1CCC1)S(=O)(=O)C[C@H]1C[C@@H](Nc2c(C#N)cnc3[nH]ccc23)C1 [Compound D] | – | did not induce a biologically significant increase | significantly improved pharmacological effects over Ruxolitinib
